According to US20110190130A1, “SYNERGISTIC HERBICIDAL COMPOSITION CONTAINING AMINOPYRALID AND 2,4-DICHLOROPHENOXYACETIC ACID” (DOW AGROSCIENCES LLC, priority 2010, published 2011):

Key:
Format in all cases: in vivo
[1] = tested on: rice flatsedge (Cyperus iria, CYPIR); assay: Postemergence herbicidal activity of mixtures under field conditions, rice flatsedge; conditions: 27 days after application
Procedure: (§1) These trials were conducted under field conditions in Tolima, Colombia. Trial sites were located in commercially grown fields of common rice (Oryza sativa). The rice crop was grown using normal cultural practices for fertilization, seeding, and maintenance to ensure good growth of the crop and the weeds. The trials were conducted using normal research methodology. Trial plots were 3 meters (m) wide by 6 m long. All treatments were applied using a randomized complete block trial design with 4 replications per treatment. The trial sites had naturally occurring populations of weeds. The weed spectrum included, but was not limited to, rice flatsedge (Cyperus iria, CYPIR); purple nutsedge (Cyperus rotundus, CYPRO); and common purslane, (Portulaca oleracea, POROL). The plots were treated with a postemergence foliar application 15 to 20 days after emergence of the rice.
(§2) Treatments consisted of tank mixes of soluble granules of aminopyralid tri-isopropanolammonium salt and commercially available formulations of 2,4-D (DMA 6 herbicide, water dispersible granules). The application volume was 160 liters per hectare (L/ha) of water. All application were made using precision gas hand sprayers using a 3 m boom using flat fan) (80° nozzles to broadcast the treatments over the top of the rice.
(§3) The treated plots and control plots were rated blind at various intervals after application. Ratings were based of Percent (%) Visual weed control, where 0 corresponds to no injury and 100 corresponds to complete kill.
(§4) Colby's equation was used to determine the herbicidal effects expected from the mixtures (Colby, S. R. Calculation of the synergistic and antagonistic response of herbicide combinations. Weeds 1967 15, 20-22).
(§5) The following equation was used to calculate the expected activity of mixtures containing two active ingredients, A and B:
(§6) A=observed efficacy of active ingredient A at the same concentration as used in the mixture;
(§7) B=observed efficacy of active ingredient B at the same concentration as used in the mixture.

[2] = tested on: purple nutsedge (Cyperus rotundus, CYPRO); assay: Postemergence herbicidal activity of mixtures under field conditions, purple nutsedge; conditions: 27 days after application, rice
Procedure: as §1, §2, §3, §4, §5, §6, §7

[3] = tested on: common purslane (Portulaca oleracea, POROL); assay: Postemergence herbicidal activity of mixtures under field conditions, common purslane; conditions: 27 days after application, rice
Procedure: as §1, §2, §3, §4, §5, §6, §7

[4] = aminopyralid 9 grams ae/ha alone
[5] = aminopyralid 12 grams ae/ha alone

SMILES | % Control CYPIR Obs ([1]; 2,4-D 180 grams ae/ha alone) [%] | % Control CYPIR Obs ([1]; 2,4-D 240 grams ae/ha alone) [%] | % Control CYPRO Obs ([2]; 2,4-D 180 grams ae/ha alone) [%] | % Control CYPRO Obs ([2]; 2,4-D 240 grams ae/ha alone) [%] | % Control POROL Obs ([3]; 2,4-D 180 grams ae/ha alone) [%] | % Control POROL Obs ([3]; 2,4-D 240 grams ae/ha alone) [%] | % Control CYPIR Obs [1, 4] [%] | % Control CYPIR Obs [1, 5] [%] | % Control CYPRO Obs [2, 4] [%] | % Control CYPRO Obs [2, 5] [%] | % Control POROL Obs [3, 4] [%] | % Control POROL Obs [3, 5] [%]
O=C(O)COc1ccc(Cl)cc1Cl [2,4-D, 2,4-dichlorophenoxyacetic acid] | 45 | 46 | 38 | 60 | 20 | 39 | – | – | – | – | – | –
Nc1cc(Cl)nc(C(=O)O)c1Cl [Aminopyralid, 4-amino-3,6-dichloro-2-pyridinecarboxylic acid] | – | – | – | – | – | – | 0 | 13 | 0 | 0 | 41 | 53
